The values that follow come from US10172868B2, “Substituted quinazolines for inhibiting kinase activity” (NeuPharma, Inc., priority 2013, dated 2019).

Assay [1] addresses EGFR (ErbB1) T790M L858R (Homo sapiens (Human), UniProt P00533, L858R/T790M). Put plainly: Z'-LYTE kinase inhibition assay, EGFR L858R/T790M. In kind it is biochemical. The following applies: for inhibition at 1 µM: read-out: % inhibition against EGFR L858R/T790M (Compound at 1 μM); for IC50: read-out: IC50 against EGFR L858R/T790M; for inhibition at 0.0137 µM: read-out: % inhibition against EGFR L858R/T790M (Compound at 0.0137 μM). The gist of the method: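 IC50 taken from 10-point, 3-fold serial dilutions tested in 1% DMSO. The mutant kinase and peptide were prepared in HEPES pH 6.5 buffer with BRIJ-35, MgCl2, EGTA and NaN3, then reacted with ATP for 1 h at room temperature. Development reagent was added for a further hour before the fluorescence readout.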

The subject of assay [2] is H1975 cells. Put plainly: Inhibition of cancer cell growth, MTT assay, H1975. The following applies: Homo sapiens, NCI-H1975, 72 h, read-out: IC50 in H1975 cells. On the technique in general: Tetrazolium dyes change colour on reduction, which living cells bring about.
Method: (§1) Inhibition of cell growth by compounds was measured using MTT assay (Mosmann, T., Journal of Immunological Methods, 1983, 65, 55-63). Tumor cell lines were purchased from ATCC (American Type Culture Collection, Manassas, Va.). All cell lines were maintained in RPMI 1640 (Hyclone) supplemented with 10% fetal bovine serum (FBS, Hyclone), glutamine (2 mM, Hyclone), and antibiotics (penicillin 100 U/mL and streptomycin 50 μg/mL) at 37° C. in a humidified atmosphere of 5% CO2 in air. Taxol (as a positive control. Sigma) and compounds were dissolved in DMSO (Sigma), and the final concentration of DMSO in the medium was 1%. Tumor cells were plated in 96-well plates at densities of about 4000 cells/well of a 96-well plate and allowed to adhere/grow for 24 h. They were then treated with various concentrations of drug for 72 h, 3-(4,5-Dimethylthiazol-2-yl)-2,5-diphenyltetrazolium bromide (MTT, Sigma) was used to determine the number of viable cells at the time of compound addition and the number of cells remaining after 72 h compound exposure. The number of cells remaining after 72 h was compared to the number of viable cells at the time of compound addition by measuring the absorbance at 570 nm, allowing for the calculation of growth inhibition.
(§2) All concentrations of compounds were tested in triplicate and controls were averaged over 4 wells. IC50 was calculated by plotting the concentration of compound vs the percentage of inhibition in treated wells using GraphPad Prism 5.
For assay [3], the system named is HCC827 cells. Briefly: cells. The following applies: Homo sapiens, HCC827, 72 h, read-out: IC50 in HCC827 cells.
Method: (§3) Taxol (as a positive control. Sigma) and compounds were dissolved in DMSO (Sigma), and the final concentration of DMSO in the medium was 1%. Tumor cells were plated in 96-well plates at densities of about 4000 cells/well of a 96-well plate and allowed to adhere/grow for 24 h. They were then treated with various concentrations of drug for 72 h, 3-(4,5-Dimethylthiazol-2-yl)-2,5-diphenyltetrazolium bromide (MTT, Sigma) was used to determine the number of viable cells at the time of compound addition and the number of cells remaining after 72 h compound exposure. The number of cells remaining after 72 h was compared to the number of viable cells at the time of compound addition by measuring the absorbance at 570 nm, allowing for the calculation of growth inhibition.
as §2
(§4) The scale utilized in Tables 5 is as follows: +++ less than 100 nM; ++ between 100 nM and 500 nM; and + greater than 500 nM.
The target of assay [4] is FGFR1 (Homo sapiens (Human), UniProt P11362). Put plainly: Z'-LYTE kinase inhibition assay, FGFR1. The class given is biochemical. The conditions noted are these: compound at 0.041 μM; read-out: % inhibition against FGFR1. As for the experimental part:
Inhibitory activities of compounds against BTK, EGFR and EGFR mutants (EGFR L858R, EGFR T790M, EGFR L858R/T790M), FGFR1, FGFR2, JAK2, JAK3 and KDR were measured by Invitrogen using Z'-LYTE® Method as briefly described in the following.
Test Compounds are screened in 1% DMSO (final) in the well. For 10 point titrations, 3-fold serial dilutions are conducted from the starting concentration. All ATP Solutions are diluted to a 4× working concentration in Kinase Buffer (50 mM HEPES pH 7.5, 0.01% BRIJ-35, 10 mM MgCl2, 1 mM EGTA). Peptide/Kinase Mixtures are diluted to a 2× working concentration in the appropriate Kinase Buffers as described below.
(v) Peptide/Kinase Mixtures for Measurement of FGFR1:
The 2×FGFR1/Tyr 04 mixture is prepared in 50 mM HEPES pH 7.5, 0.01% BRIJ-35, 10 mM MgCl2, 4 mM MnCl2, 1 mM EGTA, 2 mM DTT. The final 10 μL Kinase Reaction consists of 0.41-3.5 ng FGFR1 and 2 μM Tyr 04 in 50 mM HEPES pH 7.5, 0.01% BRIJ-35, 10 mM MgCl2, 2 mM MnCl2, 1 mM EGTA, 1 mM DTT. After the 1 hour Kinase Reaction incubation, 5 μL of a 1:64 dilution of Development Reagent B is added.
Reaction starts by 30-second shaking of mixture consisting of 2.5 μL 4× test compound, […] 2× kinase reaction mixture and 2.5 μL 4×ATP Solution on Bar-coded Corning, low volume NBS, black 384-well plate (Corning Cat. #3676). Then the mixture is incubated for 60-minute at room temperature for the kinase reaction, followed by addition of 5 μL of a 1:1024 dilution of development reagent A and 30-second plate shake. The mixture is then incubated for another 60-minute at room temperature for development reaction. Finally fluorescence is read by plate reader.
To determine IC50 of a compound against EGFR, EGFR mutant and other kinases, a series of concentrations of the compound were tested for the inhibition. […] The scale utilized in Table 4 is as follows: +++ less than 100 nM, ++ 100-500 nM and + greater than 500 nM.

Assay [5] deals with EGFR (ErbB1) (Homo sapiens (Human), UniProt P00533). Briefly: Z'-LYTE kinase inhibition assay, EGFR. In kind it is biochemical. The conditions noted are these: for inhibition at 1 µM: read-out: % inhibition against EGFR (Compound at 1 μM); for inhibition at 0.041 µM: read-out: % inhibition against EGFR (Compound at 0.041 μM); for IC50: read-out: IC50 against EGFR. The gist of the method: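 IC50 values derived from 10-point, 3-fold compound dilution series (1% DMSO final) using Z'-LYTE fluorescence readout after 60-min development. Reaction: EGFR (1.1-5.25 ng) with 2 μM peptide, 60 min at room temperature in HEPES pH 7.5 buffer containing MgCl2, MnCl2, EGTA, DTT and BRIJ-35.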

Assay [6] relates to A431 cells. Put plainly: cells. The conditions noted are these: Homo sapiens, A-431, 72 h, read-out: IC50 in A431 cells.
Method: as §3, §2, §4
Assay [7] deals with H1299 cells. Put plainly: Inhibition of cancer cell growth, MTT assay, H1299. The following applies: Homo sapiens, NCI-H1299, 72 h, read-out: IC50 in H1299 cells.
Method: as §1, §2
For assay [8], the system named is H3255 cells. Briefly: Inhibition of cancer cell growth, MTT assay, H3255. The conditions noted are these: Homo sapiens, NCI-H3255, 72 h, read-out: IC50 in H3255 cells.
Method: as §1, §2
The target of assay [9] is BTK (Homo sapiens (Human), UniProt Q06187). Briefly: Z'-LYTE kinase inhibition assay, BTK. In kind it is biochemical. The conditions noted are these: read-out: IC50 against BTK. The gist of the method: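 Z'-LYTE FRET assay with Tyr 01 peptide in 50 mM HEPES pH 7.5, 10 mM MgCl2, 1 mM EGTA, 0.01% BRIJ-35. Compounds in 1% DMSO were tested as 10-point, 3-fold titrations.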

The subject of assay [10] is H1975 tumor xenografts. Put plainly: Inhibition of tumor growth in H1975 xenograft model. In kind it is in vivo, BALB/c female nude mice. The conditions noted are these: Table 7 study, 60 mg/kg, Oral, QD x 14. How it is done: H1975 cells were implanted in BALB/c female nude mice and grown as tumor xenografts. When tumors achieved 120-200 mm^3, mice were assigned into treatment and control groups using randomized block design based upon their tumor volumes. Each group contained 6 tumor-bearing mice. Tumors were measured twice weekly in two dimensions using a caliper, and the tumor volume was calculated from two-dimensional measurements using the equation V=0.5×a×b^2 where a and b are the long and short diameters of the tumor, respectively. Relative tumor volume (RTV) was defined as TVt/TVi, the ratio of the volume on a given day (TVt) and the volume at the start of treatment (TVi). Relative tumor growth rate (T/C) was defined as RTVT/RTVC, the ratio of relative tumor volume of treatment group (RTVT) and relative tumor volume of control group (RTVC) on a given day.

A value given as a limit tells only on which side of the number the result lay.

EGFR (ErbB1), sequence (P00533 25-1210): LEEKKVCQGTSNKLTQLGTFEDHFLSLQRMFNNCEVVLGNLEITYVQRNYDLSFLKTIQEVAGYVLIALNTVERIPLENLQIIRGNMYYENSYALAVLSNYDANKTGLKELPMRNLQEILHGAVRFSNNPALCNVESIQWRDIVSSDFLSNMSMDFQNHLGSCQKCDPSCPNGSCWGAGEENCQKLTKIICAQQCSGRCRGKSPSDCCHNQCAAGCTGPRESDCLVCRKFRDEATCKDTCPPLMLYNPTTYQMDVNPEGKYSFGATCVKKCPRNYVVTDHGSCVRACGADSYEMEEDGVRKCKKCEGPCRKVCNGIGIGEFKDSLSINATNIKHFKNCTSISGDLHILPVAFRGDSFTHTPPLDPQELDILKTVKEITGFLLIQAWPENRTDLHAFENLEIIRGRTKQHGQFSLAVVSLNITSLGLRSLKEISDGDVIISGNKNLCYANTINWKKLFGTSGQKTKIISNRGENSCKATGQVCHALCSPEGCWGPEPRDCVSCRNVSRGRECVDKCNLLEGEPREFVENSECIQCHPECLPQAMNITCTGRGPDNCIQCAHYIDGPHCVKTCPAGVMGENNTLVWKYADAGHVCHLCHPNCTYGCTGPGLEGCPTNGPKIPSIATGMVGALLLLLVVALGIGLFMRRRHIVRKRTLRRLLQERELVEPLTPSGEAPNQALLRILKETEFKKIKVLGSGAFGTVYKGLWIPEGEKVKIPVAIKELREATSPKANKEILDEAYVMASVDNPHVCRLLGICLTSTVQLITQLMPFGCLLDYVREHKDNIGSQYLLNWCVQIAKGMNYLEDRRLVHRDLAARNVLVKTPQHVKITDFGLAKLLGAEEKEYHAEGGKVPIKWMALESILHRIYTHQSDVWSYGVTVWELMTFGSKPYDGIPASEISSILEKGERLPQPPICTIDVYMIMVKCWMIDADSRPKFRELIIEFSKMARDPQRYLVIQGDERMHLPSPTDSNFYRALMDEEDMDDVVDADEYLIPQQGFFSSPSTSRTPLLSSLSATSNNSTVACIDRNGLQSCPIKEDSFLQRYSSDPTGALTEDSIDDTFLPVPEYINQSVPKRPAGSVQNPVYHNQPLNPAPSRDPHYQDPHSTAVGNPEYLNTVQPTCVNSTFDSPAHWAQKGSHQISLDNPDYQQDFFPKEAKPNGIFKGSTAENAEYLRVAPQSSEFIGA
FGFR1, sequence (P11362 22-822): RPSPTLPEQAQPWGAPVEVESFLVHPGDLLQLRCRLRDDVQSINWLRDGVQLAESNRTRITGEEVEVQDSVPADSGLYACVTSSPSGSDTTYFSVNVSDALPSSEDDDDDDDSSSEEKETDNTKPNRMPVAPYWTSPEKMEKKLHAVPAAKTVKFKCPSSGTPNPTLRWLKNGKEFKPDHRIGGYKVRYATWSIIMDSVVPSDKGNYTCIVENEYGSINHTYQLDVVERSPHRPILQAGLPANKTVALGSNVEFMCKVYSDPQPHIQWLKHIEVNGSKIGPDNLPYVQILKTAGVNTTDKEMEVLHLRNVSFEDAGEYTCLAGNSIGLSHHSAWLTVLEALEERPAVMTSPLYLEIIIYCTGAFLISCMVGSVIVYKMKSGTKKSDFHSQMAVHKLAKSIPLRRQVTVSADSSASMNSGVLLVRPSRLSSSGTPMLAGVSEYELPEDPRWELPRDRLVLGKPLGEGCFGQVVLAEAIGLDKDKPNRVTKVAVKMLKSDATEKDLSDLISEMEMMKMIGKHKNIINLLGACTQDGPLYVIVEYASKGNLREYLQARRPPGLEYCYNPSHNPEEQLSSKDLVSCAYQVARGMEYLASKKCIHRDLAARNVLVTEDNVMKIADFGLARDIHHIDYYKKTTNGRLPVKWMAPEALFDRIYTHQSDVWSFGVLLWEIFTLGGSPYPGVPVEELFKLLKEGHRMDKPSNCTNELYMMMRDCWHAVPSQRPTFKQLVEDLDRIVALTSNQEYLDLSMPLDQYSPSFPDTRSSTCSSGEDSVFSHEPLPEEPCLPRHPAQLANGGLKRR
EGFR (ErbB1) T790M L858R, sequence (P00533 25-1210 T790M/L858R): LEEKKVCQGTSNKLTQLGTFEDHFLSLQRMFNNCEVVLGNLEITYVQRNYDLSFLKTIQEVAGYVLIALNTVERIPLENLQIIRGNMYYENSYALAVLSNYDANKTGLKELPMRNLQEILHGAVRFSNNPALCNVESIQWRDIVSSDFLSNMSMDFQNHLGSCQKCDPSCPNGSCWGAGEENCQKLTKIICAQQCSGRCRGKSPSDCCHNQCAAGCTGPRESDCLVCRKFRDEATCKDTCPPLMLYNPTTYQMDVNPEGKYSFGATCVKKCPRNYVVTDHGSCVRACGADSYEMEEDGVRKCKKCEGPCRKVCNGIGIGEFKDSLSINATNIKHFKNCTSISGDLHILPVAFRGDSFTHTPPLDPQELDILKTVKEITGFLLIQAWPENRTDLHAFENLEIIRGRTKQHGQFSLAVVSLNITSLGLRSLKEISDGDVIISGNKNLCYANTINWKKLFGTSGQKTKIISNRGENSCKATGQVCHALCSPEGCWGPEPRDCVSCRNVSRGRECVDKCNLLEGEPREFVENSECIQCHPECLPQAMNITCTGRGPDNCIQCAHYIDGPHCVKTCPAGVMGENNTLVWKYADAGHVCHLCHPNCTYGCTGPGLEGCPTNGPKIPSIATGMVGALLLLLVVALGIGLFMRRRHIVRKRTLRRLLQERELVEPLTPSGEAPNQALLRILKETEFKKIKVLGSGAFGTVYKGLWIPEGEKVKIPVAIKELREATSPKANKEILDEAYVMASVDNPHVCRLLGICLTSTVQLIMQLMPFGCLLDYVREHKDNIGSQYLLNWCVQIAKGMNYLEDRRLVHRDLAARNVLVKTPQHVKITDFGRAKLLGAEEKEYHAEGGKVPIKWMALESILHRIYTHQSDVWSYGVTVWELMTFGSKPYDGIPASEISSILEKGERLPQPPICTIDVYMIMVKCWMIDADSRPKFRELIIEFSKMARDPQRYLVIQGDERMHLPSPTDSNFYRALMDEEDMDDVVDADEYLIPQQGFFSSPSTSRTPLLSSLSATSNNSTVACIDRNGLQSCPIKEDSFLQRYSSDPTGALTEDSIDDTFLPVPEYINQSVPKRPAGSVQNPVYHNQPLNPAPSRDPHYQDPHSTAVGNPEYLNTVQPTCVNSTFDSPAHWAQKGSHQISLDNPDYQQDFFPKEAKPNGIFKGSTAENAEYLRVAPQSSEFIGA
BTK, sequence (Q06187 whole entry): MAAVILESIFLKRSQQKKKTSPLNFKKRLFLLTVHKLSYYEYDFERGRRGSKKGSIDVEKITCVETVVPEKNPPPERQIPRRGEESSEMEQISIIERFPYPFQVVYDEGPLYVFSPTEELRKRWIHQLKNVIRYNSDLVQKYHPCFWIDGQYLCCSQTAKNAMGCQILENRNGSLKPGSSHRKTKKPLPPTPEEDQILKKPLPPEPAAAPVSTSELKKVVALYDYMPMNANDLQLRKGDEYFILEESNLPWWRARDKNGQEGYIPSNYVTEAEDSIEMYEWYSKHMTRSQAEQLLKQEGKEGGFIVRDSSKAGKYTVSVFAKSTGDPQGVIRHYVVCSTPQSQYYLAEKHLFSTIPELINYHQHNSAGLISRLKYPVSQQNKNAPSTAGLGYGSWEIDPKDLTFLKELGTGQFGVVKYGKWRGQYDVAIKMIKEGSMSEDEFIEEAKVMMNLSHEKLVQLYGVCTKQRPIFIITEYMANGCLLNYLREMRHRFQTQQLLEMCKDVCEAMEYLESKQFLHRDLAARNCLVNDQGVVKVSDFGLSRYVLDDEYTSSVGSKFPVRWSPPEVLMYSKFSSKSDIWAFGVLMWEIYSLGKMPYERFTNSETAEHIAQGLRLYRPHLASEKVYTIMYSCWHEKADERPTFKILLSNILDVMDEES

Regarding `CCC(=O)Nc1cccc(-c2cccc3cnc(Nc4ccc(N5CCN(C)CC5)cc4)nc23)c1` [Example C020, N-(3-(2-((4-(4-methylpiperazin-1-yl)phenyl)amino)quinazolin-8-yl)phenyl)propionamide], the inhibition at 1 µM in assay [1] is greater than 50%. Also, the IC50 in assay [2] and in [3] was greater than 500 nM in each case. Also, the inhibition at 0.041 µM in assay [4] was greater than 50%.
`Clc1cccc(-c2cccc3cnc(Nc4ccc(N5CCNCC5)cc4)nc23)c1` [Example C025, 8-(3-chlorophenyl)-N-(4-(piperazin-1-yl)phenyl)quinazolin-2-amine]: the inhibition at 1 µM in assay [1] is greater than 50%. For the same compound, the IC50 in assay [2] and in assay [3] was greater than 500 nM in each case. For the same compound, the inhibition at 0.041 µM in assay [4] was greater than 50%.
Consider `Fc1cccc(-c2cccc3cnc(Nc4ccc(N5CCNCC5)cc4)nc23)c1` [Example C027, 8-(3-fluorophenyl)-N-(4-(piperazin-1-yl)phenyl)quinazolin-2-amine], for which the inhibition at 1 µM in [1] was greater than 50%. Also, the IC50 in assay [2] is greater than 500 nM; in [3], 100 to 500 nM. The inhibition at 0.041 µM in [4] was greater than 50%.
In the case of `Fc1ccccc1-c1cccc2cnc(Nc3ccc(N4CCNCC4)cc3)nc12` [Example C031, 8-(2-fluorophenyl)-N-(4-(piperazin-1-yl)phenyl)quinazolin-2-amine], the inhibition at 1 µM in assay [1] and in assay [5] was greater than 50% throughout. Moreover, the IC50 in [2] and in assay [3] was greater than 500 nM each time. For the same compound, the inhibition at 0.041 µM in assay [4] is greater than 50%.
For the compound `C=CC(=O)Nc1cccc(-c2c(C)ccc3cnc(Nc4ccc(N5CCN(C)CC5)cc4)nc23)c1` [Example C034, N-(3-(7-methyl-2-((4-(4-methylpiperazin-1-yl)phenyl)amino)quinazolin-8-yl)phenyl)acrylamide], the IC50 in [1] is less than 100 nM; in assay [5], less than 100 nM; in assay [6], greater than 500 nM; in assay [2] it was less than 100 nM; in [3], less than 100 nM; in assay [7], greater than 500 nM. Also, in assay [5], the inhibition at 0.041 µM is greater than 50%. In assay [5], the inhibition at 1 µM was greater than 50%.
In the case of `C=CC(=O)Nc1cccc(-c2c(C)ccc3cnc(Nc4ccc(N5CCN(C(C)=O)CC5)cc4)nc23)c1` [Example C035, N-(3-(2-((4-(4-acetylpiperazin-1-yl)phenyl)amino)-7-methylquinazolin-8-yl)phenyl)acrylamide], the IC50 in assay [6] was greater than 500 nM; in [2], less than 100 nM; in assay [3], less than 100 nM; in assay [7] it was greater than 500 nM.
For the compound `C=CC(=O)Nc1cncc(-c2cccc3cnc(Nc4ccc(N5CCN(C(C)=O)CC5)cc4)nc23)c1` [Example C039, N-(5-(2-((4-(4-acetylpiperazin-1-yl)phenyl)amino)quinazolin-8-yl)pyridin-3-yl)acrylamide], the IC50 is 100 to 500 nM in assay [2], less than 100 nM in assay [3] and greater than 500 nM in assay [7].
Consider `C=CC(=O)Nc1cccc(-c2cccc3cnc(Nc4cnc(N5CCN(C)CC5)nc4)nc23)c1` [Example C046, N-(3-(2-((2-(4-methylpiperazin-1-yl)pyrimidin-5-yl)amino)quinazolin-8-yl)phenyl)acrylamide], for which, in assay [1], the inhibition at 0.0137 µM is greater than 50%. Further, in assay [5], the inhibition at 0.041 µM is greater than 50%. Moreover, the IC50 in [6] was greater than 500 nM; in [2], less than 100 nM; in assay [7], greater than 500 nM.
Regarding `C=CC(=O)Nc1cccc(-c2cccc3cnc(Nc4ccc(N5CCN(C(C)=O)CC5)cc4)nc23)c1Cl` [Example C051, N-(3-(2-((4-(4-acetylpiperazin-1-yl)phenyl)amino)quinazolin-8-yl)-2-chlorophenyl)acrylamide], the inhibition at 0.0137 µM in assay [1] is greater than 50%. In addition, the inhibition at 0.041 µM in assay [5] and in assay [4] was less than 50% in each case. For the same compound, the IC50 is greater than 500 nM in assay [6] and 100 to 500 nM in [2].
For `C=CC(=O)Nc1cccc(-c2cccc3cnc(Nc4ccc(N5CCN(C)CC5)c(OC)c4)nc23)c1` [Example C075, N-(3-(2-((3-methoxy-4-(4-methylpiperazin-1-yl)phenyl)amino)quinazolin-8-yl)phenyl)acrylamide], the inhibition at 0.0137 µM in assay [1] is greater than 50%. For the same compound, the IC50 in assay [1] is less than 100 nM; in assay [6], 100 to 500 nM; in assay [2], less than 100 nM. The inhibition at 0.041 µM in assay [5] and in [4] was greater than 50% throughout.
In the case of `C=CC(=O)Nc1cccc(-c2c(F)ccc3cnc(Nc4ccc(N5CCN(CCF)CC5)cc4)nc23)c1` [Example C088, N-(3-(7-fluoro-2-((4-(4-(2-fluoroethyl)piperazin-1-yl)phenyl)amino)quinazolin-8-yl)phenyl)acrylamide], the inhibition at 0.0137 µM in assay [1] is greater than 50%. Further, the IC50 in [1] was less than 100 nM; in assay [8] it was greater than 500 nM; in assay [6] it was greater than 500 nM; in assay [2], less than 100 nM; in [7], greater than 500 nM. The inhibition at 0.041 µM in [5] was greater than 50%.
Regarding `C=CC(=O)Nc1cccc(-c2cccc3cnc(Nc4ccc(N5CCN(CCO)CC5)c(F)c4F)nc23)c1` [Example C151, N-(3-(2-((2,3-difluoro-4-(4-(2-hydroxyethyl)piperazin-1-yl)phenyl)amino)quinazolin-8-yl)phenyl)acrylamide], the IC50 is less than 100 nM in assay [9]; less than 100 nM in [1]; greater than 500 nM in assay [8]; less than 100 nM in assay [5]; 100 to 500 nM in assay [6]; less than 100 nM in [2]. The IC50 in [3] was less than 100 nM. In assay [5], the inhibition at 0.041 µM is less than 50%. Moreover, the “T/C (relative tumor growth rate)” value in assay [10] amounted to 28.6%. Moreover, the “Tumor Volume Post-treatment” value in assay [10] is recorded as 462 mm3. Besides, the “Tumor Volume Pre-treatment” value in [10] (baseline before treatment) came out at 229 mm3.
